From ChEMBL document CHEMBL1150529, “Synthesis and pharmacological activity of SC-53228, a leukotriene B4 receptor antagonist with high intrinsic potency and selectivity” (Bioorg Med Chem Lett, 1994)
Calls of active or inactive are those of the source. The calls are words filed in the database; no cut-off is given here.

Species on record: Cavia porcellus
Experiment: Oral effective dose for guinea pig LTB4 induced intradermal chemotaxis
Type: functional

Going from `CCCc1c(OCCCOc2ccc(C(=O)NC)c(OC)c2CC2CC2)ccc2c1O[C@@H](CCC(=O)O)CC2` to `CCCc1c(OCCCOc2ccc(C(=O)NC)c(OC)c2CC2CC2)ccc2c1O[C@H](CCC(=O)O)CC2`, the ED50 falls from 0.2 mg/kg to 0.07 mg/kg (2.9-fold).

Compound `CCCc1c(OCCCOc2ccc(C(C)=O)c(OC)c2CCC)ccc2c1OC(C(=O)O)CC2` (centres undefined) [SC-41390] has an ED50 of 1.7 mg/kg.

Target: Leukotriene B4 receptor 1 (Homo sapiens, UniProt Q15722)
Sequence (Q15722 whole entry): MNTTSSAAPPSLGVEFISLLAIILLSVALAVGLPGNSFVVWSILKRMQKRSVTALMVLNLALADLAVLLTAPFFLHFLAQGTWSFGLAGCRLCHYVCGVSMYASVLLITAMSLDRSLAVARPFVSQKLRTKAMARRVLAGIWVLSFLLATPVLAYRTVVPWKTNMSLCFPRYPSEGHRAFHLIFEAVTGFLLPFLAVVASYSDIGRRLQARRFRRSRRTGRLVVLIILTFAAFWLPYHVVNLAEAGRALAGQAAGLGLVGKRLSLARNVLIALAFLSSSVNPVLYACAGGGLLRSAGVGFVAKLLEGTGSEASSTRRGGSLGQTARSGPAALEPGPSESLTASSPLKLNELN
Experiment: Inhibitory activity against leukotriene B4 receptor

`CCCc1c(OCCCOc2ccc(C(=O)NC)c(OC)c2CC2CC2)ccc2c1O[C@@H](CCC(=O)O)CC2` and `CCCc1c(OCCCOc2ccc(C(=O)NC)c(OC)c2CC2CC2)ccc2c1OC(CCC(=O)O)CC2` (centres undefined) are within 1.5-fold of each other in IC50: 8.5 nM for the first, 10.9 nM for the second.

Compared with `CCCc1c(OCCCOc2ccc(C(=O)NC)c(OC)c2CC2CC2)ccc2c1OC(C(=O)O)CC2` (centres undefined), `CCCc1c(OCCCOc2ccc(C(=O)NC)c(OC)c2CC2CC2)ccc2c1O[C@H](CCC(=O)O)CC2` is 2.7-fold higher in IC50: 5.3 nM for the first, 14.5 nM for the second. The first is the more potent here.

Going from `CCCc1c(OCCCOc2ccc(C(=O)NC)c(OC)c2CCC)ccc2c1OC(C(=O)O)CC2` (centres undefined) to `CCCc1c(OCCCOc2ccc(C(=O)NC(C)C)c(OC)c2CCC)ccc2c1OC(C(=O)O)CC2` (centres undefined), the IC50 falls from 0.85 nM to 0.1 nM (8.5-fold).

First: CCCc1c(OCCCOc2ccc(C(=O)N3CCCC3)c(OC)c2CCC)ccc2c1OC(C(=O)O)CC2 (centres undefined)
Second: CCCc1c(OCCCOc2ccc(C(N)=O)c(OC)c2CCC)ccc2c1OC(C(=O)O)CC2 (centres undefined)
The IC50 of the first is lower: < 0.1 nM for the first, 2.4 nM for the second. The first is the more potent here.

`CCCc1c(OCCCOc2ccc(C(=O)N(C)C)c(OC)c2CCC)ccc2c1OC(C(=O)O)CC2` (centres undefined) was tested, and the IC50 was 0.15 nM.

System: Mus musculus
Experiment: Topical effective dose for TPA induced ear inflammation in the mouse
Type: functional

Going from `CCCc1c(OCCCOc2ccc(C(=O)NC)c(OC)c2CC2CC2)ccc2c1O[C@@H](CCC(=O)O)CC2` to `CCCc1c(OCCCOc2ccc(C(=O)NC)c(OC)c2CC2CC2)ccc2c1O[C@H](CCC(=O)O)CC2`, the ED50 falls from 1200 µg to 200 µg.

With `CCCc1c(OCCCOc2ccc(C(C)=O)c(OC)c2CCC)ccc2c1OC(C(=O)O)CC2` (centres undefined) [SC-41390] the ED50 was 1400 µg.

Species on record: Mus musculus
Experiment: Oral effective dose for TPA induced ear inflammation in the mouse
Type: functional

First: CCCc1c(OCCCOc2ccc(C(C)=O)c(OC)c2CCC)ccc2c1OC(C(=O)O)CC2 (centres undefined) [SC-41390]
Second: CCCc1c(OCCCOc2ccc(C(=O)NC)c(OC)c2CC2CC2)ccc2c1O[C@H](CCC(=O)O)CC2
The ED50 of the first is higher: 18 mg/kg for the first, < 2.5 mg/kg for the second.

System: Rattus norvegicus
Experiment: Tested for increase in fatty acyl Co-A activity in rats dosed for 7 days at a dose of 200 mg/kg/day; NS means no significant activity
Type: functional, organism-based

In the case of `CCCc1c(OCCCOc2ccc(C(=O)NC)c(OC)c2CC2CC2)ccc2c1O[C@H](CCC(=O)O)CC2`, the Activity is reported as “inactive”.

Species on record: Homo sapiens
Experiment: Compound was tested for inhibitory activity against leukotriene B4 induced neutrophil chemotaxis
Type: functional

Compared with `CCCc1c(OCCCOc2ccc(C(=O)NC)c(OC)c2CC2CC2)ccc2c1O[C@@H](CCC(=O)O)CC2`, `CCCc1c(OCCCOc2ccc(C(=O)NC)c(OC)c2CC2CC2)ccc2c1OC(CCC(=O)O)CC2` (centres undefined) is 2-fold higher in IC50: 10.7 nM for the first, 21.9 nM for the second.

First: CCCc1c(OCCCOc2ccc(C(=O)NC)c(OC)c2CC2CC2)ccc2c1OC(C(=O)O)CC2 (centres undefined)
Second: CCCc1c(OCCCOc2ccc(C(=O)NC)c(OC)c2CC2CC2)ccc2c1O[C@H](CCC(=O)O)CC2
The IC50 of the first is 1.9-fold lower: 13 nM for the first, 24.4 nM for the second. The first is the more potent here.

First: CCCCC/C=C\C[C@@H](O)/C=C/C=C/C=C\[C@@H](O)CCCC(=O)O [LEUKOTRIENE_B4]
Second: CCCc1c(OCCCOc2ccc(C(=O)N(C)C)c(OC)c2CCC)ccc2c1OC(C(=O)O)CC2 (centres undefined)
The IC50 of the first is higher: 1.79 nM for the first, < 0.14 nM for the second.

`CCCc1c(OCCCOc2ccc(C(=O)NC)c(OC)c2CCC)ccc2c1OC(C(=O)O)CC2` (centres undefined) and `CCCc1c(OCCCOc2ccc(C(C)=O)c(OC)c2CCC)ccc2c1OC(C(=O)O)CC2` (centres undefined) [SC-41390] are within 1.5-fold of each other in IC50: 1.3 nM for the first, 1 nM for the second.

Going from `CCCc1c(OCCCOc2ccc(C(=O)N3CCCC3)c(OC)c2CCC)ccc2c1OC(C(=O)O)CC2` (centres undefined) to `CCCc1c(OCCCOc2ccc(C(N)=O)c(OC)c2CCC)ccc2c1OC(C(=O)O)CC2` (centres undefined), the IC50 rises from < 0.16 nM to 2.7 nM.

For `CCCc1c(OCCCOc2ccc(C(=O)NC(C)C)c(OC)c2CCC)ccc2c1OC(C(=O)O)CC2` (centres undefined), the IC50 was 0.11 nM.
